Test results: patent US20020142942A1, “Method for treating premenstrual or late luteal phase syndrome” (Merck & Co. Inc., priority 1997, published 2002)

Columns and labels:
[1] = system: distress vocalisations in guinea-pig pups; experiment: Separation-induced vocalisation assay; type: in vivo, guinea-pigs; conditions: p.o.
Excerpt: Separation-Induced Vocalisation Assay Male and female guinea-pigs pups are housed in family groups with their mothers and littermates throughout the study. Experiments are commenced […] when the pups are 2 weeks old. Before entering an experiment, the pups are screened to ensure that a vigorous vocalisation response is reproducibly elicited following maternal separation. The pups are placed individually in an observation cage (55 cm×39 cm×19 cm) in a room physically isolated from the home cage for 15 minutes and the duration of vocalisation during this baseline period is recorded. Only animals which vocalise for longer than 5 minutes are employed for drug challenge studies (approximately 50% of available pups may fail to reach this criterion). On test days each pup receives an oral dose or a s.c. or i.p. injection of test compound or vehicle and is then immediately returned to the home cage with its mother and siblings for 30 minutes to 60 minutes (or for up to 4 hours following an oral dose, dependant upon the oral pharmacokinetics of the test compound) before social isolation for 15 minutes as described above. The duration of vocalisation on drug treatment days is expressed as a percentage of the pre-treatment baseline value for each animal. The same subjects are retested once weekly for up to 6 weeks. Between 6 and 8 animals receive each test compound at each dose tested. […]

[2] = system: women with premenstrual syndrome; experiment: Double-blind, placebo-controlled study of mood and appetite disturbances associated with premenstrual syndrome; type: in vivo; conditions: 30 mg/day, compared with placebo, Hamilton Depression Scale and PMS/LLPD Symptom Rating Scale
Experimental: Double-Blind, Placebo-Controlled Study to Determine the Effect of a Substance P Antagonist on Mood and Appetite Disturbances Associated with Premenstrual Syndrome in Women.
Approximately twenty women receive either the substance P receptor antagonist 2-(R)-(1-(R)-(3,5-bis(trifluoromethyl)phenyl)ethoxy)-3-(S)-(4-fluorophenyl)-4-(3-(5-oxo-1H,4H-1,2,4-triazolo)methyl-morpholine (30 mg/day) or a placebo starting approximately two weeks prior to their expected menstrual period. Each subject participates in 6 randomized test periods; in 3 of the test periods, each is given the substance P antagonist and in the other 3 test periods, is given a placebo. Mood is assessed 1-3 days before the onset of menses, using the Hamilton Depression Scale and the PMS/LLPD Symptom Rating Scale, for mood and appetite symptoms. Hamilton, N., Journal of Neurosurgery and Psychiatry, 23:56-62 (1960); Steiner, M. et al., Acta Psychiatrica Scandinavia, 62:177-190 (1980). Food intake is measured through the use of self-reports (when subjects were out-patients), and directly (while subjects were inpatients), during one drug and one placebo period; subjects also are weighed. The results between the test periods are compared and the results for each subject are evaluated.

[3] = system: cisplatin-induced emesis in ferrets; experiment: Ferret emesis assay; type: in vivo; conditions: p.o.
Experimental: Ferret Emesis Assay Individually housed male ferrets (1.0-2.5 kg) are dosed orally by gavage with test compound. Ten minutes later they are fed with approximately 100 g of tinned cat food. At 60 minutes following oral dosing, cisplatin (10 mg(kg) is given i.v. via a jugular vein catheter inserted under a brief period of halothane anaesthesia. The catheter is then removed, the jugular vein ligated and the skin incision closed. The ferrets recover rapidly from the anaesthetic and are mobile within 10-20 minutes. The animals are observed continuously during recovery from the anaesthetic and for 4 hours following the cisplatin injection, after which time the animals are killed humanely. The numbers of retches and vomits occurring during the 4 hours after cisplatin administration are recorded by trained observers.

[4] = system: foot tapping in gerbils induced by central injection of an NK1 agonist; experiment: Gerbil foot-tapping assay; type: in vivo, Mongolian gerbils; conditions: i.v.
Excerpt: Gerbil Foot-Tapping Assay CNS penetrant NK-1 receptor antagonists for use in the present invention can be identified by their ability to inhibit foot tapping in gerbils induced by anxiogenic agents (such as pentagastrin) or central infusion of NK-1 receptor agonists such as GR73632, or caused by aversive stimulation such as foot shock or single housing, based on the method of Rupniak & Williams, Eur. J. Pharmacol., 1994, 265, 179. Male or female Mongolian gerbils (35-70 g) are anaesthetised by inhalation of an isoflurane/oxygen mixture to permit exposure of the jugular vein in order to permit administration of test compounds or vehicle in an injection volume of 5 ml/kg i.v. Alternatively, test compounds may be administered orally or by subcutaneous or intraperitoneal routes. The wound is closed and a second skin incision is made in the midline of the scalp to expose the skull. […] The duration and/or intensity of hind foot tapping is then recorded continuously for 5 minutes. Alternatively, the ability of test compounds to inhibit foot tapping evoked by aversive stimulation, such as foot shock or single housing, may be studied using a similar method of quantification.

gerbil foot-tapping (5 mins.): IC50 ([4]; 5 mins.): IC50 = 0.36 mg/kg i.v.
gerbil foot-tapping (24 hrs.): IC50 ([4]; 24 hrs.): IC50 = 0.33 mg/kg i.v.
Compound: C[C@@H](O[C@H]1OCCN(Cc2n[nH]c(=O)[nH]2)[C@H]1c1ccc(F)cc1)c1cc(C(F)(F)F)cc(C(F)(F)F)c1 [2-(R)-(1-(R)-(3,5-bis(trifluoromethyl)-phenyl)-ethoxy)-3-(S)-(4-fluorophenyl)-4-(3-(5-oxo-1H,4H-1,2,4-triazolo)methyl)-morpholine]
guinea-pig vocalisation (4 hr. pre-treatment): ID50 [1]: ID50 = 0.73 mg/kg p.o.
effect in decreasing depression and other negative mood states [2]: positive effect with respect to placebo
ferret emesis: ID90 [3]: ID90 = <3 mg/kg p.o.
